Data taken from US20220319656A1, “AUTOMATED LITERATURE META ANALYSIS USING HYPOTHESIS GENERATORS AND AUTOMATED SEARCH” (TECHNION RESEARCH & DEVELOPMENT FOUNDATION, priority 2019, published 2022).

Key:
MG63 = experiment: Cell viability assay (MTT), in vitro screen, MG63 cells; type: cell-based, Human; conditions: 72 h
Protocol: Human osteosarcoma MG-63, U2OS cell lines were kind gift from David Meiri, and head and neck FaDu cell line were a kind gift of Moshe Elkabetz. These cells were incubated under standard conditions of 37° C., 5% CO2, and 95% humidity. MG-63 and U2OS cells were cultured in RPMI-1640 (Biological Industries) containing 10% fetal bovine serum, 2 mM L-Glutamine (Biological Industries) and 1% penicillin/streptomycin (Biological Industries).
5000 cells per well in 0.2 ml growth media were seeded in a 96-well plate and allowed to attach for 24 hours. After 24 hours the cells were exposed to logarithmic gradient of drugs (Gemcitabine, Sorafenib, Nilotinib, Carfilzomib, Nintedanib, Trametinib, Cabozantinib, Ponatinib, Infigratinib, Duvelisib).
Cell survival for the cell lines was assayed after 3 days from adding the drugs. For the U20S and MG-63 by adding […] (5 mg/ml) in DDW to each well. After 3 hours, the solution was removed and 200 μl of DMSO was added. For the Fadu cell line by adding 30 μl of MTT solution (5 mg/ml) in DDW to each well. After 1 hour, the solution was removed and 100 μl of DMSO was added to dissolve the formazan crystals. Cell viability was evaluated by measuring the absorbance of each well using a Synergy H1 (BioTek) plate reader at 570 nm relative to control wells.

Fadu cells = type: cell-based; conditions: 72 h
Protocol: FaDu cell line were cultured in DMEM (Biological Industries) containing 10% fetal bovine serum, 2 mM L-Glutamine (Biological Industries) and 1% penicillin/streptomycin (Biological Industries). 5000 cells per well in 0.2 ml growth media were seeded in a 96-well plate and allowed to attach for 24 hours. After 24 hours the cells were exposed to logarithmic gradient of drugs (Gemcitabine, Sorafenib, Nilotinib, Carfilzomib, Nintedanib, Trametinib, Cabozantinib, Ponatinib, Infigratinib, Duvelisib). Cell survival for the cell lines was assayed after 3 days from adding the drugs. For the U20S and MG-63 by adding […] (5 mg/ml) in DDW to each well. After 3 hours, the solution was removed and 200 μl of DMSO was added. For the Fadu cell line by adding 30 μl of MTT solution (5 mg/ml) in DDW to each well. After 1 hour, the solution was removed and 100 μl of DMSO was added to dissolve the formazan crystals. Cell viability was evaluated by measuring the absorbance of each well using a Synergy H1 (BioTek) plate reader at 570 nm relative to control wells.

[1] = from a short literature review; cited from earlier work

SMILES | potency / growth inhibition in the in-vitro screen (MG63) | sensitivity of cells to free drug and nanoparticle formulation (MG63) | cytotoxicity (MG63; low nanomolar concentrations) | potency in the in-vitro screen (Fadu cells; Fadu cells, MTT) | sensitivity of cells to free drug and nanoparticle formulation (Fadu cells; Fadu cells, MTT) | cytotoxicity (Fadu cells; human) | effectiveness versus chemotherapy combination of pemetrexed and cisplatin [1]
CC(C)C[C@H](NC(=O)[C@H](CCc1ccccc1)NC(=O)CN1CCOCC1)C(=O)N[C@@H](Cc1ccccc1)C(=O)N[C@@H](CC(C)C)C(=O)[C@@]1(C)CO1 [carfilzomib] | most potent compound | extremely sensitive | more than 95% | most potent molecule | less sensitive | 64% | 
C=CC(=O)Nc1cc(Nc2nccc(-c3cn(C)c4ccccc34)n2)c(OC)cc1N(C)CCN(C)C [osimertinib] |  |  |  |  |  |  | more effective
